In patent US6727245B2, “Heterobicyclic derivatives” (Fujisawa Pharmaceutical Co., Ltd., priority 1994, dated 2004) one finds melting point and IC50 data, which are given here for 17 compounds.

Broadly, the melting point is the temperature of the solid-liquid transition. The IC50 is the concentration that inhibits the measured activity by half. Lower therefore signals higher potency.

In data set [1] the target is U937 Phosphodiesterase IV (PDE IV). In words: Inhibition of U937 Phosphodiesterase IV (PDE IV). The format is biochemical. To be noted: PDE IV enzyme preparation from U937 cell homogenate; [3H]-cAMP substrate; CI-930 (PDE III inhibitor) final 10 μM; 30° C. How it is done: (a) Inhibition of U937 Phosphodiesterase IV (PDE IV)
Harvested U937 was freezed in −80° C. and throwed to destroy the cell body. The pellet of destroyed cell was washed by Phosphate-buffered saline (PBS).
The washed cell pellet was homogenized with Dounce homogenizer (20 strokes) in homogenizing buffer (0.5% deoxycholate [DOC], 5 mM 2-mercaptoethanol, 1 μM leupeptin, 100 μM PMSF, 20 μM p-tosyl-L-lysine-chloromethyl ketone [TLCK] in PBS). The homogenate was centrifuged at 100,000 g×90 minutes (4° C.) and the supernatant containing PDE IV activity was dialyzed against dialysis buffer, which was the same component as homogenizing buffer without DOC. The dialyzed supernatant of homogenate was stored in freezer (−80° C.) as PDE IV enzyme preparation.
Enzyme preparation was diluted in assay buffer (10 mM Tris-HCl, 5 mM MgCl, 1 mM 2-Mercaptoethanol [pH 8.0]). In advance the rate of dilution was choosen every new lot of homogenizing preparation. […]
The reaction tube was preincubated in a water bath (30° C.) for 5 minutes, then 100 μl [^3H]-cAMP (37.0 MBq/ml [^3H]-cAMP: 4 μM cold cAMP=1:800) was added thereto. […] The mixture was centrifuged at 1000 rpm×5 minutes, and then 500 μl of the supernatant was added to 10 ml scintillation fluid in appropriate vial, vortexed, and counted for [^3H].
The inhibitory activity was calculated according to the following equation: [formula]

Data set [2] has as its system TNF-α Production in Human Mononuclear Cells. The experiment in a line: Inhibition on TNF-α Production in Human Mononuclear Cells. To be noted: MNC from healthy volunteers, 1 μg/ml LPS (E. coli), 37° C. for 16 hours, TNF-α in supernatant by ELISA. The format is cell-based. Here is the method: (b) Inhibition on TNF-α Production in Human Mononuclear Cells
Blood was drawn from healthy volunteers with heparin. The mononuclear cell (MNC) fraction was obtained by gradient centrifugation (1800 rpm, 15 minutes), diluted with the same volume of RPMI-1640 culture medium, over Ficoll-Paque (Pharmacia LKB Biotechnology). MNC were washed twice with RPMI-1640. Then, MNC were resuspended in RPMI-1640 culture medium supplemented with 2 mM L-glutamine and 1% fetal bovine serum. MNC were incubated at 37° C. for 16 hours in 96-well micro culture plate at a concentration of […] with or without 1 μg/ml lipopolysaccharide (LPS) (from E. coli) and various amounts of test compound. At the end of incubation, the supernatant was obtained and its TNF-α active was measured by enzyme-linked immunosorbent assay (ELISA). ELISA was performed with TNF-α ELISA kit (Otsuka Pharmaceutical Co., Ltd.).
For orientation: ELISA stands for enzyme-linked immunosorbent assay.

On to `COC(=O)c1cccn1-c1cccc(-n2c(=O)c(Cc3ccccc3)nc3cccnc32)c1` [Example 68(17), 2-Benzyl-4-[3-(2-methoxycarbonylpyrrol-1-yl)phenyl]-3-oxo-3,4-dihydropyrido[2,3-b]pyrazine], for which the melting point fell in the range of 190 to 191 °C.
Compound `CNC(=O)Nc1cccc(-c2cccc(-n3c(=O)c(Cc4cccnc4)nc4cccnc43)c2)c1` [Example 72, 4-[3-[3-(3-Methylureido)phenyl]phenyl]-2-(3-pyridylmethyl)-3-oxo-3,4-dihydropyrido[2,3-b]pyrazine] showed a melting point of 248 to 252 °C.
Still for that read-out and setting: the figure for `CCNC(=O)Nc1cccc(-c2cccc(-n3c(=O)c(Cc4cccnc4)nc4cccnc43)c2)c1` [Example 73, 4-[3-[3-(3-Ethylureido)phenyl]phenyl]-2-(3-pyridylmethyl)-3-oxo-3,4-dihydropyrido[2,3-b]pyrazine] is 257 to 258 °C; for `O=C(Nc1ccccc1)Nc1cccc(-c2cccc(-n3c(=O)c(Cc4cccnc4)nc4cccnc43)c2)c1` [Example 74, 4-[3-[3-(3-Phenylureido)phenyl]phenyl]-2-(3-pyridylmethyl)-3-oxo-3,4-dihydropyrido[2,3-b]pyrazine] it is 234 °C.
In turn, `Nc1cccc(-c2cccc(-n3c(=O)c(Cc4cccnc4)nc4cccnc43)c2)c1` [Example 75, 4-[3-(3-Aminophenyl)phenyl]-2-(3-pyridylmethyl)-3-oxo-3,4-dihydropyrido[2,3-b]pyrazine] displayed a melting point of 202 to 204 °C.
`O=C(Nc1cccc(-c2cccc(-n3c(=O)c(Cc4cccnc4)nc4cccnc43)c2)c1)c1ccc2ccccc2c1` [Example 76(2), 4-[3-[3-(2-Naphthoylamino)phenyl]phenyl]-2-(3-pyridylmethyl)-3-oxo-3,4-dihydropyrido[2,3-b]pyrazine] returned a melting point of 202 to 210 °C.
`O=C(Nc1cccc(-c2cccc(-n3c(=O)c(Cc4cccnc4)nc4cccnc43)c2)c1)c1cc2ccccc2s1` [Example 76(3), 4-[3-[3-[(Benzo[b]thiophen-2-yl)carbonylamino]phenyl]phenyl]-2-(3-pyridylmethyl)-3-oxo-3,4-dihydropyrido[2,3-b]pyrazine] showed a melting point of 216 to 218 °C.
Still for that read-out and setting: as for `O=C(Nc1cccc(-c2cccc(-n3c(=O)c(Cc4cccnc4)nc4cccnc43)c2)c1)c1cnc2ccccc2n1` [Example 76(4), 4-[3-[3-(2-Quinoxalinylcarbonylamino)phenyl]phenyl]-2-(3-pyridylmethyl)-3-oxo-3,4-dihydropyrido[2,3-b]pyrazine], the figure is 206 to 209 °C; as for `CCC(=O)Nc1cccc(-c2cccc(-n3c(=O)c(Cc4cccnc4)nc4cccnc43)c2)c1` [Example 76(5), 4-[3-(3-Propionylaminophenyl)phenyl]-2-(3-pyridylmethyl)-3-oxo-3,4-dihydropyrido[2,3-b]pyrazine], 223 to 224 °C.
For the compound `O=C(/C=C/c1ccncc1)Nc1cccc(-c2cccc(-n3c(=O)c(Cc4cccnc4)nc4cccnc43)c2)c1` [Example 76(6), 4-[3-[3-[(E)-3-(4-Pyridyl)acryloylamino]phenyl]phenyl]-2-(3-pyridylmethyl)-3-oxo-3,4-dihydropyrido[2,3-b]pyrazine], the melting point was in the range of 185 to 191 °C.
Consider `CCOC(=O)/C=C/C(=O)Nc1cccc(-c2cccc(-n3c(=O)c(Cc4cccnc4)nc4cccnc43)c2)c1` [Example 77(3), 4-[3-[3-[(E)-3-Ethoxycarbonylacryloylamino]phenyl]phenyl]-2-(3-pyridylmethyl)-3-oxo-3,4-dihydropyrido[2,3-b]pyrazine], for which the melting point was 130 to 160 °C (dec.).
Turning to `O=C(O)c1ccccc1C(=O)Nc1cccc(-c2cccc(-n3c(=O)c(Cc4cccnc4)nc4cccnc43)c2)c1` [Example 81, 4-[3-[3-(2-carboxybenzoylamino)phenyl]phenyl]-2-(3-pyridylmethyl)-3-oxo-3,4-dihydropyrido[2,3-b]pyrazine], the melting point was 150 °C (dec.).
The compound `O=C(O)CCC(=O)Nc1cccc(-c2cccc(-n3c(=O)c(Cc4cccnc4)nc4cccnc43)c2)c1` [Example 82(1), 4-[3-[3-(3-Carboxypropanoylamino)phenyl]phenyl]-2-(3-pyridylmethyl)-3-oxo-3,4-dihydropyrido[2,3-b]pyrazine] displayed a melting point of 193 to 199 °C.
As to `O=C(/C=C(\C(=O)O)c1ccccc1)Nc1cccc(-c2cccc(-n3c(=O)c(Cc4cccnc4)nc4cccnc43)c2)c1` [Example 82(2), 4-[3-[3-[(Z)-3-Carboxy-3-phenylacryloylamino]phenyl]phenyl]-2-(3-pyridylmethyl)-3-oxo-3,4-dihydropyrido[2,3-b]pyrazine], the melting point was 189 to 198 °C (dec.).
In the case of `O=C(Nc1cccc(-c2cccc(-n3c(=O)c(Cc4cccnc4)nc4cccnc43)c2)c1)C(F)(F)F` [Example 83, 4-[3-(3-trifluoroacetylaminophenyl)phenyl]-2-(3-pyridylmethyl)-3-oxo-3,4-dihydropyrido[2,3-b]pyrazine], the melting point was in the range of 138 to 144 °C.
As to `O=c1c(Cc2ccccc2)nc2cccnc2n1-c1cccc(-n2c(Br)ccc2Br)c1` [Example 113, 2-Benzyl-4-[3-(2,5-dibromopyrrol-1-yl)phenyl]-3-oxo-3,4-dihydropyrido[2,3-b]pyrazine], the melting point is 90 °C (dec.).
For `O=C(Nc1cccc(-n2c(=O)c(Cc3ccccc3)nc3cccnc32)c1)Nc1cccc2ccccc12` [Test compound (a), 4-[3-[3-(1-Naphthyl)ureido]phenyl]-2-benzyl-3-oxo-3,4-dihydropyrido[2,3-b]pyrazine], the IC50 in data set [1] amounted to 0.031 µM; in data set [2], 0.056 µM.
